Experimental data published in the NIST ThermoML archive (doi:10.1016/j.jct.2015.07.028).

Conditions: Liquid, Closed cell (Static) method

O [water]
Conditions | vapor or sublimation pressure [kPa]
276.1 K | 0.753
276.16 K | 0.76
278.47 K | 0.894
280.8 K | 1.05
283.11 K | 1.223
285.49 K | 1.43
285.52 K | 1.44
288.24 K | 1.708
290.65 K | 1.994
290.71 K | 2.01
293.51 K | 2.398
295.49 K | 2.697
295.58 K | 2.707
298.22 K | 3.182
298.33 K | 3.202
300.72 K | 3.703
300.8 K | 3.708
302.99 K | 4.213
305.57 K | 4.882
305.6 K | 4.869
307.8 K | 5.499
310.42 K | 6.36
310.49 K | 6.404
312.73 K | 7.192
315.28 K | 8.236
315.37 K | 8.313
317.67 K | 9.333
320.11 K | 10.56
320.2 K | 10.63
322.5 K | 11.93
322.54 K | 11.99
325.01 K | 13.51
